Test systems include DLD-1 colon; HOP-18 NSCLC; M19-MEL melanoma; KM20L2 colon; XF 498 CNS; DMS 114 small cell lung; SNB-78 CNS; DMS 273 small cell lung; TK-10 renal; LXFL 529 NSCLC; HT29 colon; K-562 leukemia; HCT-15 colon; ACHN renal.
What all share (experiment): DTP human tumour cell line panel, 48 h

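In this assay, cells in 96-well plates receive the compound at five concentrations for 48 hours. Endpoints are linearly interpolated between the surrounding concentrations. At the TGI there is no net growth.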

In general, TGI refers to the concentration giving total growth inhibition. Low values mean greater sensitivity of the cells, high ones lower sensitivity of the cells. With `COc1cc2c(cc1OCc1ccccc1)CNCC2`, the TGI in the assay with DLD-1 colon, with HOP-18 NSCLC, with M19-MEL melanoma, with KM20L2 colon, in the assay with XF 498 CNS and with DMS 114 small cell lung was more than 100 µM each time. Further, the TGI in the assay on SNB-78 CNS, with DMS 273 small cell lung, with TK-10 renal, with LXFL 529 NSCLC, with HT29 colon and in the assay on K-562 leukemia was more than 100 µM throughout. Also, the TGI in the assay on HCT-15 colon and in the assay on ACHN renal was more than 100 µM each time.

Turning to `O=C(C[n+]1ccccc1)NNC(=O)/C(=C/c1ccc2c(c1)OCO2)NC(=O)c1ccccc1`, the TGI in the assay with DLD-1 colon is more than 62.2 µM; with HOP-18 NSCLC it was more than 84.7 µM; with M19-MEL melanoma, more than 100 µM; in the assay with KM20L2 colon it was more than 100 µM; with XF 498 CNS it was more than 83.5 µM; in the assay on DMS 114 small cell lung, 46.4 µM. Also, the TGI was more than 100 µM in the assay on SNB-78 CNS; more than 69.8 µM in the assay on DMS 273 small cell lung; more than 100 µM in the assay with TK-10 renal; more than 77.2 µM in the assay with LXFL 529 NSCLC; more than 100 µM in the assay on HT29 colon; more than 100 µM in the assay on K-562 leukemia. Besides, the results for the TGI in the assay with HCT-15 colon and in the assay on ACHN renal were more than 63.5 µM and more than 100 µM, respectively.

With `CCCCCC(C[N+]1(C)CCOCC1)C(=O)/C=C/c1ccccc1` (stereo unspecified), the TGI is 18 µM in the assay with DLD-1 colon; 32.1 µM in the assay with HOP-18 NSCLC; 32 µM in the assay with M19-MEL melanoma; 32.9 µM in the assay with KM20L2 colon; 28.3 µM in the assay with XF 498 CNS; 26 µM in the assay with DMS 114 small cell lung. Also, the concentration for total growth inhibition (TGI) in the assay on SNB-78 CNS came to 46.9 µM; in the assay on DMS 273 small cell lung, 11.7 µM; in the assay on TK-10 renal, 37.8 µM; with LXFL 529 NSCLC it was 11.5 µM; with HT29 colon, 10.3 µM; in the assay with K-562 leukemia, 18 µM. The TGI with HCT-15 colon amounted to 25 µM; in the assay on ACHN renal it was 60.8 µM.

Consider `Clc1ccc(-c2c(C3=NCCN3)nnn2-c2ccc(Cl)cc2)cc1`, for which the total growth inhibition concentration (TGI) in the assay with DLD-1 colon was more than 100 µM; in the assay with HOP-18 NSCLC, more than 100 µM; in the assay with M19-MEL melanoma, 30.5 µM; with KM20L2 colon, 32.7 µM; in the assay on XF 498 CNS, 29.5 µM; in the assay with DMS 114 small cell lung it was 31.5 µM. For the same compound, the concentration for total growth inhibition (TGI) in the assay on SNB-78 CNS was 61.7 µM; in the assay with DMS 273 small cell lung, more than 100 µM; in the assay on TK-10 renal it was 69.7 µM; in the assay on LXFL 529 NSCLC, 95.4 µM; in the assay with HT29 colon, 36.2 µM; in the assay on K-562 leukemia, 35.9 µM. In addition, the TGI in the assay on HCT-15 colon and in the assay on ACHN renal was more than 100 µM each time.

(Values after PubChem BioAssay (NCI).)
